Test results published in patent publication US11786597B2, “Ionic liquids for transdermal drug delivery” (priority 2013, dated 2023).
Where two headings read alike, the source gives them in different places. Marks after values point to notes of the source that are not given here.

Tests used:
[1] = Determination of lipophilicity (octanol/water distribution by UV absorbance); assay type: physicochemical; conditions: for percent in octanol: after extraction with water
Description: A 250 mL volume of n-octanol was shaken with 100 mL of ddH2O and left overnight. […]
The absorption of the octanol layer and water layers were measured and compared with the absorbance of the stock solutions. Measurements were repeated three times and the distribution coefficients were reported as the average. The percent of IL in octanol was calculated as the absorbance of the octanol layer after extraction divided by the absorbance of IL in octanol before extraction. The water/octanol distribution coefficient was calculated as the logarithm of the percent of IL in octanol divided by the percent of IL in water.

[2] = Abbott et al. 2006; cited from earlier work
porcine skin [3] = experiment: Skin transport of 3H-Mannitol in Franz diffusion cell; assay type: in vitro ADME
Description: (§1) FIG. 1 is a schematic of the skin transport experiment set-up and analysis. Porcine skin was loaded into the Franz diffusion cell (FDC) with the stratum corneum (SC) facing up. Skin was incubated in contact with 3H-labeled drug dissolved in donor solution for 24 hrs, at 37° C., with stirring. After 24 hrs the donor solution was removed and skin thoroughly washed. The SC was separated from the epidermis by tape stripping. Ten tape strips were applied, each tape corresponding to 1 “layer” of SC. Ten tape strips were assumed to remove the entire SC. Epidermis was separated from dermis using a razor blade. Acceptor solution was collected, and drug transport into various tissue layers was quantified by scintillation counter.
3H-labeled Mannitol and Cefadroxil were obtained from American Radiolabeled Chemicals, Inc. and Moravek, respectively. FDCs were used to assess the transport enhancement of ionic liquids using a previously established protocol. Karande, et al., “Discovery of transdermal penetration enhancers by high-throughput screening”, Nat Biotechnol, 22(2): 192-7 (2004). Briefly, the acceptor chamber was filled with degassed PBS and a small stir bar added. Thawed porcine skin was clamped in place between the acceptor and donor chambers with the SC facing up. Care was taken to ensure no air bubbles resided in the acceptor chamber. Ionic liquids or PBS (control) were spiked with 3H-labeled drug (Mannitol and Cefadroxil) to a final concentration of 10 μCi/ml. 300 μL of donor solution was added to the donor chamber and incubated in contact with the SC for 24 hr, at 37° C., with stirring.
After 24 hr, the donor solution was removed, and the skin was thoroughly washed and dried.
SC was separated from epidermis by tape stripping. Ten tape strips were performed in an identical fashion, with each tape corresponding to 1 SC “layer”. Ten strips were assumed to remove the majority of the SC. Epidermis was separated from dermis with a razor blade, and the acceptor solution was collected from the acceptor chamber. Samples from each tissue layer and acceptor solution were dissolved in Soluble (Perkin Elmer, Waltham, MA) overnight and the concentration of radiolabeled solute was measured using a scintillation counter (Packard Tri-Carb 2100 TR, Meriden, CT).

[4] = Calculations of molarity and ionic strength; assay type: physicochemical; conditions: neat IL, Table 5
Conductivity of neat IL = assay type: physicochemical
Description: (§2) Determinations of conductivity were made on an ION450 benchtop meter (Radiometer Analytical) with a 2-pole electrode designed for use in viscous liquids (Radiometer Analytical CDC241-9) and calibrated with KCl. Conductivity was measured three times per sample on stirred 3 mL volumes of neat IL at 25° C. Density was measured three times per IL using a 1 mL volumetric flask and an analytical balance.

[5] = tested on: Normal human bronchial epithelial (NHBE) cells; experiment: WST-1 proliferation assay, 24 h exposure to diluted ILs; conditions: solubilized in culture medium
Description: Normal human bronchial epithelial (NHBE) cells were purchased (Lonza, Walkersville, MD) and cultured using bronchial epithelial cell growth media (BEGM, Clonetics Bullet Kit, Lonza, Walkersville, MD) on 100 mm tissue culture treated Petri dishes (Santa Cruz Biotechnologies, Santa Cruz, CA) coated with 50 μg/mL type I rat tail collagen (BD Biosciences, Bedford, MA). Cells were stored in an incubator with a humidified atmosphere at 37° C. and 5% CO2. Cells were fed two times weekly and passaged via trypsinization. Experimentation was performed in triplicate on cells harvested from passages 3 to 7.
NHBE cells were plated in 96-well tissue culture plates at a concentration of 1.5×10^4 cells/well in a volume of 200 μL and allowed to acclimate overnight. On the day of experimentation, treatment plates were prepared using stock ionic liquid diluted in BEGM and then serially diluted 3-fold for a total of 7 concentrations. The 96-well plates containing cells were then aspirated and the treatments (150 μL/well) were carefully transferred from the prep plate to the cells. Cells were exposed to the ionic liquids for 24 hours. Two hours prior to the end of the exposure time, positive control cell wells were aspirated, and a solution of 1% Triton-100 (150 μL/well) was added.
To assess cellular proliferation, water-soluble tetrazolium (WST-1) reagent (Clontech, Mountain View, CA) was added directly to cells, at a 1:10 dilution of the remaining media volume (7.5 μL of WST-1 reagent was added per 75 μL remaining cell culture media). NHBE cells exposed to media only and 1% Triton in BEGM were included as controls. Ionic liquid controls at the highest concentrations tested were included in wells without cells to rule out ionic liquid/assay reagent interference.

[6] = Density (volumetric flask and balance); assay type: physicochemical
Description: as §2

[7] = Solubility in water (physical characterization); conditions: 25° C.
[8] = Viscosity (Viscolab 3000 viscometer); assay type: physicochemical
Description: Viscosity was measured on 1 mL samples with a Viscolab 3000 viscometer (Cambridge Viscosity, Medford, MA). […] Low-temperature differential scanning calorimetry (DSC) was performed on a DSC882e instrument (Mettler-Toledo Inc., Columbus, Ohio) under N2 atmosphere over two complete scans of a temperature range of −60 to 120° C. with a ramp rate of 10° C. per minute and a sample size of 18-21 mg in an aluminum crucible.

porcine skin [9] = experiment: Skin transport of 3H-Cefadroxil in Franz diffusion cell; assay type: in vitro ADME; conditions: spiked with Cefadroxil
Description: as §1
3H-labeled Mannitol and Cefadroxil were obtained from American Radiolabeled Chemicals, Inc. and Moravek, respectively. FDCs were used to assess the transport enhancement of ionic liquids using a previously established protocol. Karande, et al., “Discovery of transdermal penetration enhancers by high-throughput screening”, Nat Biotechnol, 22(2): 192-7 (2004). […]
SC was separated from epidermis by tape stripping. […] Samples from each tissue layer and acceptor solution were dissolved in Soluble (Perkin Elmer, Waltham, MA) overnight and the concentration of radiolabeled solute was measured using a scintillation counter (Packard Tri-Carb 2100 TR, Meriden, CT).

Row | Compound | percent in octanol ([1]; Table 3) | ionic strength [4] [M] | molarity [4] [M] | conductivity (Conductivity of neat IL; 25° C.) [mS/cm] | conductivity (Conductivity of neat IL; Table 5) | density ([6]; 25° C.) [g/mL] | density ([6]; Table 5) [g/mL] | viscosity ([8]; 25° C.) [cP] | viscosity ([8]; Table 5) | further results
1 | C[N+](C)(C)CCO.NC(N)=O.NC(N)=O.[Cl-] [LANL-6, urea-choline] | 24 +/− 8% | 2.32 | 4.65 | 0.580 | 0.580^a mS/cm | 1.21 | 1.21 | 1390 | 1386^a cP | partitioning into octanol [1]: partitioned poorly into octanol; log Po/w ([1]; octanol/water, Table 3): −0.51; viscosity, literature value at 40° C. [2]: 169 cP; drug permeation into the SC (porcine skin [3]; 3H-Mannitol, 24 hr, 37° C.): inhibited drug permeation into the SC; toxicity to human primary cells [5]: low toxicity; solubility in water [7]: miscible; viscosity at 40° C. ([8]; 40° C.): 170 cP; viscosity ([8]; text b171): 1390 cP
2 | choline geranate [LANL-21] | 66 +/− 3% | 3.39 | 2.26 | 0.0431 | 0.0431 mS/cm | 0.990 | 0.990 | 1345 | 1345 cP | log Po/w [1]: 0.28; loss/partitioning of solute to the acceptor solution (porcine skin [3]; 3H-Mannitol): enhanced partitioning into the acceptor solution; transport enhancement into/through all layers of the skin (porcine skin [3]; 3H-Mannitol, relative to PBS control): 5-15 fold; skin transport properties (porcine skin [3]; materials in lower right portion of Walden plot): best skin transport properties; conductivity (Conductivity of neat IL; text b172): 0.04 mS/cm; partitioning into the dermis and acceptor solution versus control (PBS) (porcine skin [9]): 15-20 times
